Assay results: BindingDB's records for patent US8962648 (Oncotherapy Science, 2015)

Target: T1, Lymphokine-activated killer T-cell-originated protein kinase (Homo sapiens, UniProt Q96KB5)
T1 sequence (Q96KB5 whole entry): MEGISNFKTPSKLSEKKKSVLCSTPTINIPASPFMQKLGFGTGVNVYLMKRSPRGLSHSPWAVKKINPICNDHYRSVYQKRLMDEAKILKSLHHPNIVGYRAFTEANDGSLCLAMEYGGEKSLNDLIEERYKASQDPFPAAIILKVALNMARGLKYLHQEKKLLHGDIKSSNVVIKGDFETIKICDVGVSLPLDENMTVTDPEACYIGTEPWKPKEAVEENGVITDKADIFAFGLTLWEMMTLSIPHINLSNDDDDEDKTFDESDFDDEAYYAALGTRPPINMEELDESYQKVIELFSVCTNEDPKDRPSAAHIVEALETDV
Assay: Kinase Assay
Settings: pH 7.4; 25 °C
Protocol: PBK activity was determined in the presence or absence of compounds using fluorescein isothiocyanate-labeled (FITC-labeled) histone H3 peptide as a substrate. […] The serially diluted compounds, 0.8 ng/micro-L PBK (Carna Biosciences) and 100 nM FITC-labeled histone H3 peptide were reacted in a reaction buffer (20 mM HEPES, 0.01% Tween-20, 0.3 mM MgCl2, 2 mM dithiothreitol, 50 micro-M ATP, pH 7.4) at room temperature for 1 hour. The reaction was stopped by the addition of three fold assay volume of progressive binding solution. Following 0.5 hour incubation at room temperature.

| SMILES | IC50 [nM] |
| --- | --- |
| O=c1[nH]c2ccc(O)c(-c3ccc(S(=O)(=O)NCCBr)cc3)c2c2ccsc12 [US8962648, 210] | 11.3 |
| Cc1cc(O)c(-c2ccc(C(C)(C)N)cc2)c2c1[nH]c(=O)c1sccc12 [US8962648, 1330] | 8.3 |
| CCC(c1ccc(-c2c(O)ccc3[nH]c(=O)c4sccc4c23)cc1)N(CC)CC (centres undefined) [US8962648, 338] | 3.7 |
| CS(=O)(=O)Nc1ccc(-c2c(O)ccc3[nH]c(=O)c4sccc4c23)cc1 [US8962648, 77] | 2.6 |
| CC(=O)Oc1ccc2[nH]c(=O)c3sccc3c2c1-c1ccc(C(C)N)cc1 (centres undefined) [US8962648, 1099] | 33 |
| CN(C)Cc1ccc(-c2c(O)ccc3[nH]c(=O)c4sccc4c23)cc1 [US8962648, 165] | 6.9 |
| COc1ccc2[nH]c(=O)c3sccc3c2c1-c1ccc(CN2CCC(CNC(=O)OC(C)(C)C)CC2)cc1 [US8962648, 139] | 9.4 |
| Cc1cc(O)c(-c2ccc(C3(CN(C)C)CCC3)cc2)c2c1[nH]c(=O)c1sccc12 [US8962648, 1372] | 42 |
| CNC[C@@H](C)c1ccc(-c2c(O)ccc3[nH]c(=O)c4sccc4c23)cc1 [US8962648, 1197] | 2.8 |
| CS(=O)(=O)NCc1ccc(-c2c(O)ccc3[nH]c(=O)c4sccc4c23)cc1 [US8962648, 212] | 5.5 |
| CC[C@@H](N)c1ccc(-c2c(O)ccc3[nH]c(=O)c4sccc4c23)cc1 [US8962648, 1131] | 1.3 |
| CN(C)CCc1ccc(-c2c(O)ccc3[nH]c(=O)c4sccc4c23)cc1F [US8962648, 327] | 1.9 |
| CNCc1ccc(-c2c(OC)ccc3[nH]c(=O)c4sccc4c23)cc1 [US8962648, 188] | 7.8 |
| C[C@@H](N)c1ccc(-c2c(O)ccc3[nH]c(=O)c4sccc4c23)cc1 [US8962648, 275] | 0.54 |
| N#Cc1ccc2[nH]c(=O)c3sccc3c2c1-c1ccc(CN)cc1 [US8962648, 326] | 13 |
| NCC1(c2ccc(-c3c(O)cc(Cl)c4[nH]c(=O)c5sccc5c34)cc2)CC1 [US8962648, 1116] | 22 |
| COc1cc(C)c2[nH]c(=O)c3sccc3c2c1-c1ccc(C2(CN)CC2)cc1 [US8962648, 1251] | 55 |
| CCN(CC)C(C)c1ccc(-c2c(O)ccc3[nH]c(=O)c4sccc4c23)cc1 (centres undefined) [US8962648, 196] | 4.5 |
| CCNCc1ccc(-c2c(O)ccc3[nH]c(=O)c4sccc4c23)cc1 [US8962648, 267] | 2 |
| COc1ccc2[nH]c(=O)c3sccc3c2c1/C=C/CN1CCC(N)CC1 [US8962648, 152] | 31 |
| COc1cc(C)c2[nH]c(=O)c3sc(C)cc3c2c1-c1ccc([C@@H](C)CN)cc1 [US8962648, 1341] | 38 |
| NCc1ccc(-c2c(O)cc(Cl)c3[nH]c(=O)c4sccc4c23)cc1 [US8962648, 329] | 16 |
| CCC(N)c1ccc(-c2c(O)cc(Cl)c3[nH]c(=O)c4sccc4c23)cc1 (centres undefined) [US8962648, 1088] | 16 |
| CN(C)S(=O)(=O)c1ccc(-c2c(O)ccc3[nH]c(=O)c4sccc4c23)cc1 [US8962648, 304] | 45 |
| N[C@H]1CCN(c2ccc3[nH]c(=O)c4sc(-c5ccc(O)cc5)cc4c3c2)C1 [US8962648, 51] | 78 |

| SMILES | IC50 [nM] |
| --- | --- |
| COc1ccc2[nH]c(=O)c3sccc3c2c1-c1ccc([C@@H](C)N)cc1 [US8962648, 274] | 3.8 |
| Cc1cc(O)c(-c2ccc([C@@H](C)CN)cc2)c2c1[nH]c(=O)c1sc(Cl)cc12 [US8962648, 1353] | 4 |
| Cc1cc(O)c(-c2ccc([C@@H](C)CN)cc2)c2c1[nH]c(=O)c1sc(F)cc12 [US8962648, 1383] | 3.7 |
| NCC1CCN(Cc2ccc(-c3c(O)ccc4[nH]c(=O)c5sccc5c34)cc2F)CC1 [US8962648, 235] | 0.57 |
| NCC1(c2ccc(-c3c(O)cc(Br)c4[nH]c(=O)c5sccc5c34)cc2)CC1 [US8962648, 1401] | 51 |
| CN[C@H](C)c1ccc(-c2c(O)cc(Br)c3[nH]c(=O)c4sccc4c23)cc1 [US8962648, 1135] | 30 |
| O=c1[nH]c2ccc(O)c(C3=CCNCC3)c2c2ccsc12 [US8962648, 84] | 0.78 |
| COc1cc(F)c2[nH]c(=O)c3sccc3c2c1-c1ccc(CN)cc1 [US8962648, 257] | 26 |
| CC(c1ccc(-c2c(O)ccc3[nH]c(=O)c4sccc4c23)cc1)N1CCCC1 (centres undefined) [US8962648, 194] | 2.8 |
| C[C@H](N)c1ccc(-c2c(O)ccc3[nH]c(=O)c4sccc4c23)cc1 [US8962648, 233] | 0.81 |
| NCCc1ccc(-c2c(O)ccc3[nH]c(=O)c4sccc4c23)cc1F [US8962648, 276] | 0.5 |
| CC(=O)c1ccc(-c2c(O)ccc3[nH]c(=O)c4sccc4c23)cc1 [US8962648, 296] | 23 |
| N#CC1(c2ccc(-c3c(O)ccc4[nH]c(=O)c5sccc5c34)cc2)CC1 [US8962648, 361] | 32 |
| C[C@@H](c1ccc(-c2c(O)ccc3[nH]c(=O)c4sccc4c23)cc1)N(C)C [US8962648, 335] | 2.9 |
| Cc1cc(O)c(-c2ccc(C(C)CS(N)(=O)=O)cc2)c2c1[nH]c(=O)c1sccc12 (centres undefined) [US8962648, 1419] | 82 |
| NC1Cc2ccc(-c3c(O)ccc4[nH]c(=O)c5sccc5c34)cc2C1 (centres undefined) [US8962648, 345] | 1.2 |
| CC[C@H](N)c1ccc(-c2c(O)ccc3[nH]c(=O)c4sccc4c23)cc1 [US8962648, 1120] | 0.88 |
| Cc1cc(O)c(-c2ccc(C3(CN)CCC3)cc2)c2c1[nH]c(=O)c1sccc12 [US8962648, 1290] | 10 |
| C[C@H](CN(C)C)c1ccc(-c2c(O)ccc3[nH]c(=O)c4sccc4c23)cc1 [US8962648, 1172] | 4 |
| COc1cc(C)c2[nH]c(=O)c3sccc3c2c1-c1ccc(CCN)c(Cl)c1 [US8962648, 1263] | 33 |
| CC(C)OC(=O)Oc1ccc2[nH]c(=O)c3sccc3c2c1-c1ccc(C(C)N)cc1 (centres undefined) [US8962648, 1077] | 76 |
| O=c1[nH]c2ccc(O)c(-c3ccc(S(=O)(=O)NCCBr)cc3)c2c2c1CCC2 [US8962648, 1094] | 10 |
| O=c1[nH]c2ccc(O)c(-c3ccc(S(=O)(=O)NCCCl)cc3)c2c2c1CCC2 [US8962648, 1145] | 13 |
| CN[C@H](C)c1ccc(-c2c(OC)cc(C)c3[nH]c(=O)c4sccc4c23)cc1 [US8962648, 1265] | 67 |
| CC(N)Cc1ccc(-c2c(O)ccc3[nH]c(=O)c4sccc4c23)cc1 (centres undefined) [US8962648, 1095] | 1.3 |

| SMILES | IC50 [nM] |
| --- | --- |
| CC(CN)c1ccc(-c2c(O)ccc3[nH]c(=O)c4sccc4c23)cc1Cl (centres undefined) [US8962648, 1280] | 10 |
| CNCCc1ccc(-c2c(O)cc(C)c3[nH]c(=O)c4sccc4c23)cc1F [US8962648, 1258] | 25 |
| CN(C)CC1(c2ccc(-c3c(O)ccc4[nH]c(=O)c5sccc5c34)cc2)CC1 [US8962648, 379] | 3.6 |
| O=c1[nH]c2ccc(O)c(-c3ccc(S(=O)(=O)NCCCl)cc3)c2c2ccsc12 [US8962648, 332] | 23 |
| CC(NC1CCCC1)c1ccc(-c2c(O)ccc3[nH]c(=O)c4sccc4c23)cc1 (centres undefined) [US8962648, 314] | 2.8 |
| CC(N)Cc1ccc(-c2c(O)cc(Cl)c3[nH]c(=O)c4sccc4c23)cc1 (centres undefined) [US8962648, 1106] | 41 |
| CC[C@H](NC)c1ccc(-c2c(O)ccc3[nH]c(=O)c4sccc4c23)cc1 [US8962648, 1148] | 1.3 |
| CC(C)NCc1ccc(-c2c(O)ccc3[nH]c(=O)c4sccc4c23)cc1 [US8962648, 229] | 4.2 |
| CC(C)(CN)c1ccc(-c2c(O)ccc3[nH]c(=O)c4sccc4c23)cc1F [US8962648, 1271] | 1 |
| CC(c1ccc(-c2cccc3[nH]c(=O)c4sccc4c23)cc1)N(C)C (centres undefined) [US8962648, 346] | 9.2 |
| CC(C)(N)c1ccc(-c2c(O)ccc3[nH]c(=O)c4sccc4c23)cc1 [US8962648, 319] | 0.43 |
| CN[C@@H](C)c1ccc(-c2c(O)cc(Cl)c3[nH]c(=O)c4sccc4c23)cc1 [US8962648, 1087] | 19 |
| CC(C)(CN)c1ccc(-c2c(O)cc(Cl)c3[nH]c(=O)c4sccc4c23)cc1 [US8962648, 1260] | 75 |
| C[C@H](CN)c1ccc(-c2c(O)ccc3[nH]c(=O)c4sccc4c23)cc1 [US8962648, 1163] | 1.3 |
| NCc1ccc(-c2c(O)cc(F)c3[nH]c(=O)c4sccc4c23)cc1 [US8962648, 256] | 2.5 |
| COc1ccc2[nH]c(=O)c3sccc3c2c1-c1ccc(S(=O)(=O)NCCF)cc1 [US8962648, 333] | 31 |
| CCN(CC)C(C)c1ccc(-c2c(O)ccc3[nH]c(=O)c4sccc4c23)cc1F (centres undefined) [US8962648, 356] | 3.6 |
| COc1cc(C)c2[nH]c(=O)c3sc(F)cc3c2c1-c1ccc([C@@H](C)CN)cc1 [US8962648, 1375] | 22 |
| CNCc1ccc(-c2c(O)ccc3[nH]c(=O)c4sccc4c23)cc1 [US8962648, 187] | 0.9 |
| NCC1(c2ccc(-c3c(O)ccc4[nH]c(=O)c5sccc5c34)cc2)CCC1 [US8962648, 1300] | 1.7 |
| NCCCc1ccc(-c2c(O)ccc3[nH]c(=O)c4sccc4c23)cc1 [US8962648, 273] | 0.74 |
| CCC(N)c1ccc(-c2c(OC)ccc3[nH]c(=O)c4sccc4c23)cc1 (centres undefined) [US8962648, 337] | 5.2 |
| CC(c1ccc(-c2c(O)ccc3[nH]c(=O)c4sccc4c23)cc1F)N(C)C (centres undefined) [US8962648, 349] | 1.9 |
| CCC(CC)(CN)c1ccc(-c2c(O)ccc3[nH]c(=O)c4sccc4c23)cc1 [US8962648, 1209] | 1.8 |
